# Test results taken from patent publication US20260355196A1, “INHIBITORS AND DEGRADERS OF PIP4K PROTEIN” (Larkspur Biosciences, Inc., priority 2023, published 2026).
# Biological target: T1, PIP4K2C (Homo sapiens, UniProt Q8TBX8)
# T1 sequence (Q8TBX8 1-421): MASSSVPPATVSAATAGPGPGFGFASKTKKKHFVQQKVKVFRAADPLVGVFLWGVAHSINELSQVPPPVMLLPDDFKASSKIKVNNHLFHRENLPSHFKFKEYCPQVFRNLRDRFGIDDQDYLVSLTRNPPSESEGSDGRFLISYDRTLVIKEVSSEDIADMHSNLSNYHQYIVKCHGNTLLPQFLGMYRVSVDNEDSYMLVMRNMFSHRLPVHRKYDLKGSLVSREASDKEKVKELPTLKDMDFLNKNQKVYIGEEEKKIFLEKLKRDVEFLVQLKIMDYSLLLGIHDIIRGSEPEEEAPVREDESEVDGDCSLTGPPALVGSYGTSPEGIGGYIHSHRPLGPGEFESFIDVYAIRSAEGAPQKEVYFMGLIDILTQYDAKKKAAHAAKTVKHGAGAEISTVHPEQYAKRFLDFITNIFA
# Assay: Enzyme Binding Assay (KINOMEscan): active site-directed competition binding to an immobilized ligand
# Parameters: purchased Eurofins DiscoverX, San Diego, CA 87-0007-1094
# Conditions: 11-point dose response, duplicate, top concentration 5 micromolar; read-out: Pip4k2c Kd: IC50
# In short: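 IC50 values come from Hill-equation fits (Levenberg-Marquardt) to 11-point duplicate titrations starting at 5 micromolar. Read-out is competition of compound with an immobilized ligand for the kinase active site.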
row,IC50 [nM],Structure (SMILES)
1,< 500,"CC(=O)N[C@H]1CC[C@H](Nc2ncc(F)c(-c3cccc(N4CCC(O)CC4)c3)n2)CC1 [Compound 250, trans-N-(4-((5-fluoro-4-(3-(4-hydroxypiperidin-1-yl)phenyl)pyrimidin-2-yl)amino)cyclohexyl)acetamide]"
2,< 500,"CC(=O)N1CCC(Nc2ncc(F)c(-c3cccc(N4CCCC4=O)c3)n2)CC1 [Compound 222, 1-[3-[2-[(1-acetyl-4-piperidyl)amino]-5-fluoro-pyrimidin-4-yl]phenyl]pyrrolidin-2-one]"
3,< 500,"CC(=O)N[C@H]1CC[C@H](Nc2ncc(F)c(-c3cccc(-n4ccccc4=O)c3)n2)CC1 [Compound 238, trans-N-[4-[[5-fluoro-4-[3-(2-oxo-1-pyridyl)phenyl]pyrimidin-2-yl]amino]cyclohexyl]acetamide]"
4,< 500,"CC(=O)N1CCC(CCC(=O)N2CCC(Nc3ncc(Cl)c(-c4cccc(-c5ccccc5)c4)n3)CC2)CC1 [Compound 8, 1-(4-((4-([1,1′-biphenyl]-3-yl)-5-chloropyrimidin-2-yl)amino)piperidin-1-yl)-3-(1-acetylpiperidin-4-yl)propan-1-one]"
5,< 500,"CNC(=O)[C@H]1C[C@@H](Nc2ncc(Cl)c(-c3cnn(-c4ccc[nH]c4=O)c3)n2)C1 [Compound 193, cis-3-((5-chloro-4-(1-(2-oxo-1,2-dihydropyridin-3-yl)-1H-pyrazol-4-yl)pyrimidin-2-yl)amino)-N-methylcyclobutane-1-carboxamide]"
6,< 500,"CC(=O)N[C@H]1CC[C@H](Nc2ncc(F)c(-c3cccc(-n4ccccc4=O)n3)n2)CC1 [Compound 626, trans-N-(4-((5-fluoro-4-(2-oxo-2H-[1,2′-bipyridin]-6′-yl)pyrimidin-2-yl)amino)cyclohexyl)acetamide]"
7,< 500,"CC(=O)N[C@H]1CC[C@H](Nc2ncc(F)c(-c3cccc(N4CCOCC4)c3)n2)CC1 [Compound 608, trans-N-(4-((5-fluoro-4-(3-morpholinophenyl)pyrimidin-2-yl)amino)cyclohexyl)acetamide]"
8,< 500,"CC(=O)N1CCC(Nc2ncc(F)c(-c3cccc(-c4ncc[nH]4)c3)n2)CC1 [Compound 239, 1-(4-((4-(3-(1H-imidazol-2-yl)phenyl)-5-fluoropyrimidin-2-yl)amino)piperidin-1-yl)ethan-1-one]"
9,< 500,"CC(=O)N[C@H]1CC[C@H](Nc2ncc(F)c(-c3cccc(N4CCCCC4=O)n3)n2)CC1 [Compound 625, N-(trans-4-((5-fluoro-4-(6-(2-oxopiperidin-1-yl)pyridin-2-yl)pyrimidin-2-yl)amino)cyclohexyl) acetamide]"
10,< 500,"CNC(=O)[C@H]1C[C@@H](Nc2ncc(Cl)c(-c3cccc(-c4ccc(F)cc4)n3)n2)C1 [Compound 115, cis-3-((5-chloro-4-(6-(4-fluorophenyl)pyridin-2-yl)pyrimidin-2-yl)amino)-N-methylcyclobutane-1-carboxamide]"
11,< 500,"CC(=O)N[C@H]1CC[C@H](Nc2ncc(Cl)c(-c3cnn(-c4ccc(=O)[nH]c4)c3)n2)CC1 [Compound 145, trans-N-((1r,4r)-4-((5-chloro-4-(1-(6-oxo-1,6-dihydropyridin-3-yl)-1H-pyrazol-4-yl)pyrimidin-2-yl)amino)cyclohexyl)acetamide]"
12,< 500,"CC(=O)N[C@H]1CC[C@H](Nc2ncc(F)c(-c3cccc(C4CCC(=O)NC4)c3)n2)CC1 (stereo partly drawn) [Compound 631, N-(trans-4-((5-fluoro-4-(3-(6-oxopiperidin-3-yl)phenyl)pyrimidin-2-yl)amino)cyclohexyl)acetamide]"

# Second part, the molecule before the results:
row,Structure (SMILES),IC50 [nM]
1,"CC(=O)N1CCC(Nc2ncc(F)c(-c3cccc(N4CCOC4=O)c3)n2)CC1 [Compound 226, 3-(3-(2-((1-acetylpiperidin-4-yl)amino)-5-fluoropyrimidin-4-yl)phenyl)oxazolidin-2-one]",< 500
2,"CC(=O)N[C@H]1CC[C@H](Nc2ncc(F)c(-c3cccc(N4CCCOC4=O)c3)n2)CC1 [Compound 225, trans-N-(4-((5-fluoro-4-(3-(2-oxo-1,3-oxazinan-3-yl)phenyl)pyrimidin-2-yl)amino)cyclohexyl)acetamide]",< 500
3,"CNC(=O)[C@H]1CC[C@@H](Nc2ncc(Cl)c(-c3cccc(-c4ccc[nH]c4=O)c3)n2)CC1 [Compound 138, cis-(1s,4s)-4-((5-chloro-4-(3-(2-oxo-1,2-dihydropyridin-3-yl)phenyl)pyrimidin-2-yl)amino)-N-methylcyclohexane-1-carboxamide]",< 500
4,"NC(=O)[C@H]1CCC[C@@H](Nc2ncc(Cl)c(C3CCN(C(=O)c4ccc(F)cc4)C3)n2)C1 (relative stereo) [Compound 135, cis-3-((5-chloro-4-(1-(4-fluorobenzoyl)pyrrolidin-3-yl)pyrimidin-2-yl)amino)cyclohexane-1-carboxamide]",< 500
5,"O=C(CCC1CCNCC1)N1CCC(Nc2ncc(Cl)c(-c3cccc(-c4ccccc4)c3)n2)CC1 [Compound 7, 1-(4-((4-([1,1′-biphenyl]-3-yl)-5-chloropyrimidin-2-yl)amino)piperidin-1-yl)-3-(piperidin-4-yl)propan-1-one]",< 500
6,"CC(=O)N[C@H]1CC[C@@H](Nc2ncc(Cl)c(-c3cccc(-c4ccccc4)c3)n2)CC1 [Compound 31, N-(cis-4-((4-([1,1′-biphenyl]-3-yl)-5-chloropyrimidin-2-yl)amino)cyclohexyl)acetamide]",500 to 1000
7,"NC(=O)[C@H]1CC[C@H](Nc2ncc(F)c(-c3cccc(-n4cc(C(F)(F)F)ccc4=O)c3)n2)CC1 [Compound 246, trans-4-((5-fluoro-4-(3-(2-oxo-5-(trifluoromethyl)pyridin-1 (2H)-yl)phenyl)pyrimidin-2-yl)amino)cyclohexane-1-carboxamide]",< 500
8,"CC(=O)N1CCC(Nc2ncc(Cl)c(-c3cnn(C4CC4)c3)n2)CC1 [Compound 98, 1-(4-((5-chloro-4-(1-cyclopropyl-1H-pyrazol-4-yl)pyrimidin-2-yl)amino)piperidin-1-yl)ethan-1-one]",< 500
9,"O=C(C1CCC2(CCNCC2)CC1)N1CCC(Nc2ncc(Cl)c(-c3cccc(-c4ccccc4)c3)n2)CC1 [Compound 11, (4-((4-([1,1′-biphenyl]-3-yl)-5-chloropyrimidin-2-yl)amino)piperidin-1-yl)(3-azaspiro[5.5]undecan-9-yl)methanone]",< 500
10,"NC(=O)[C@H]1CC[C@H](Nc2ncc(F)c(-c3cccc(N4CCCC4=O)c3)n2)CC1 [Compound 249, trans-4-((5-fluoro-4-(3-(2-oxopyrrolidin-1-yl)phenyl)pyrimidin-2-yl)amino)cyclohexane-1-carboxamide]",< 500
11,"CC(=O)N1CCC(Nc2ncc(F)c(-n3cc(C4CC4)cn3)n2)CC1 [Compound 219, 1-(4-((4-(4-cyclopropyl-1H-pyrazol-1-yl)-5-fluoropyrimidin-2-yl)amino)piperidin-1-yl)ethan-1-one]",< 500
12,"NC(=O)[C@@H]1CCC[C@H](Nc2ncc(F)c(-c3cccc(N4CCCC4)c3)n2)C1 (relative stereo) [Compound 36, cis-3-((5-fluoro-4-(3-(pyrrolidin-1-yl)phenyl)pyrimidin-2-yl)amino)cyclohexane-1-carboxamide]",< 500
13,"CNC(=O)[C@H]1C[C@H](Nc2ncc(Cl)c(-c3cnn(-c4ccc(F)cc4)c3)n2)C1 [Compound 123, trans-(1r,3r)-3-((5-chloro-4-(1-(4-fluorophenyl)-1H-pyrazol-4-yl)pyrimidin-2-yl)amino)-N-methylcyclobutane-1-carboxamide]",500 to 1000
14,"CC(=O)N1CCC(Nc2ncc(Cl)c(-c3ccnc(-c4ccc(F)cc4)c3)n2)CC1 [Compound 105, 1-(4-((5-chloro-4-(2-(4-fluorophenyl)pyridin-4-yl)pyrimidin-2-yl)amino)piperidin-1-yl)ethan-1-one]",< 500
15,"CC(=O)N1CCC2(CCC(C(=O)N3CCC(Nc4ncc(Cl)c(-c5cccc(-c6ccccc6)c5)n4)CC3)CC2)CC1 [Compound 13, 1-(9-(4-((4-([1,1′-biphenyl]-3-yl)-5-chloropyrimidin-2-yl)amino)piperidine-1-carbonyl)-3-azaspiro[5.5]undecan-3-yl)ethan-1-one]",< 500
16,"CC(=O)N1CCC[C@H](Nc2ncc(Cl)c(-c3cc(C4CC4)[nH]n3)n2)C1 [Compound 192, (S)-1-(3-((5-chloro-4-(5-cyclopropyl-1H-pyrazol-3-yl)pyrimidin-2-yl)amino)piperidin-1-yl)ethan-1-one]",< 500
17,"CN1CC(Nc2ncc(Cl)c(-c3cccc(-c4ccccc4)c3)n2)CCC1=O (stereo not shown) [Compound 14, 5-((4-([1,1′-biphenyl]-3-yl)-5-chloropyrimidin-2-yl)amino)-1-methylpiperidin-2-one]",< 500
18,"CC(=O)N[C@H]1CC[C@H](Nc2ncc(F)c(-c3cccc(N4CCCOC4=O)n3)n2)CC1 [Compound 624, N-(trans-4-((5-fluoro-4-(6-(2-oxo-1,3-oxazinan-3-yl)pyridin-2-yl)pyrimidin-2-yl)amino)cyclohexyl)acetamide]",< 500
19,"CC(=O)N1CCC(Nc2ncc(F)c(-c3cccc(N4CCC(O)C4=O)c3)n2)CC1 (stereo not shown) [Compound 228, 1-(3-(2-((1-acetylpiperidin-4-yl)amino)-5-fluoropyrimidin-4-yl)phenyl)-3-hydroxypyrrolidin-2-one]",< 500
